Assay results reported in BindingDB's records for doi:10.1016/s0028-3908(00)00035-6 (University of Cambridge, 2000).
Values joined by “and” are separate entries in the source; they are usually repeats but may differ in a detail not shown here. Equal values may be shown once.

How the values were obtained:
[1] = target: Somatostatin receptor type 2 (Rattus norvegicus, UniProt P30680)
[2] = target: Somatostatin receptor type 5 (Homo sapiens, UniProt P35346)
[3] = target: Somatostatin receptor type 2 (Homo sapiens, UniProt P30874)
Chain of Somatostatin receptor type 2 (Homo sapiens, UniProt P30874) (P30874 whole entry): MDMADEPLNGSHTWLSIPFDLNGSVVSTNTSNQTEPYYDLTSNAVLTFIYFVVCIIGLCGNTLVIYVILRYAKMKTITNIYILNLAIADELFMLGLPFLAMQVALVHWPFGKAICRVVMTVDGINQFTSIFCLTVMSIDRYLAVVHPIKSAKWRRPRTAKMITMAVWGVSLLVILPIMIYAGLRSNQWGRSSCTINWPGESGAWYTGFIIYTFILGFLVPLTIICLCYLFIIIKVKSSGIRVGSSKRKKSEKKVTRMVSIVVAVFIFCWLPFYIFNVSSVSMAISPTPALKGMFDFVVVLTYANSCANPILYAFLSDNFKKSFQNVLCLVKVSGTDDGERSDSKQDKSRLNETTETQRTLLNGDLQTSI

[4] = target: Somatostatin receptor type 4 (Homo sapiens, UniProt P31391)
Chain of Somatostatin receptor type 4 (P31391 whole entry): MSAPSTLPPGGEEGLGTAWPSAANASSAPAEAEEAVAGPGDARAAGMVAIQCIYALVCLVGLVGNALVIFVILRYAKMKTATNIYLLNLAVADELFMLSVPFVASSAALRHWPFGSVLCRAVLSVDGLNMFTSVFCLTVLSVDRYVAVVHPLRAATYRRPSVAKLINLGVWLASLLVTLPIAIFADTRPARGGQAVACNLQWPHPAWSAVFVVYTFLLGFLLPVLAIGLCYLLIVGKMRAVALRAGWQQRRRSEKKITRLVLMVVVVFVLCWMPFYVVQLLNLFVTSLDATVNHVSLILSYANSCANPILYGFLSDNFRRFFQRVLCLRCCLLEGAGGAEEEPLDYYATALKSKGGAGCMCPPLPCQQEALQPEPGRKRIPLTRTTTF

[5] = target: Somatostatin receptor type 3 (Homo sapiens, UniProt P32745)
Chain of Somatostatin receptor type 3 (P32745 whole entry): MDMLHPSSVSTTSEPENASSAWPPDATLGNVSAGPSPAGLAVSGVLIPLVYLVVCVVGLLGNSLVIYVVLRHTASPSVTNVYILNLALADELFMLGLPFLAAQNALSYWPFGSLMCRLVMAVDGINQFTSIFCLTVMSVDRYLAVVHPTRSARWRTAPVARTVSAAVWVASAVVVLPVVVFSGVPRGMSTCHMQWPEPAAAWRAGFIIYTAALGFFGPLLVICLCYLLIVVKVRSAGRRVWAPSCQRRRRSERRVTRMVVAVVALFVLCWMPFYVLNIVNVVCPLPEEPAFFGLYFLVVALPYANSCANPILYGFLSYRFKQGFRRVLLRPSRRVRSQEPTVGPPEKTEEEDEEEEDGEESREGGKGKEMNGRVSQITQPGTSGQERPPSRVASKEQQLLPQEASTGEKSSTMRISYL

Chain of Somatostatin receptor type 2 (Rattus norvegicus, UniProt P30680) (P30680 whole entry): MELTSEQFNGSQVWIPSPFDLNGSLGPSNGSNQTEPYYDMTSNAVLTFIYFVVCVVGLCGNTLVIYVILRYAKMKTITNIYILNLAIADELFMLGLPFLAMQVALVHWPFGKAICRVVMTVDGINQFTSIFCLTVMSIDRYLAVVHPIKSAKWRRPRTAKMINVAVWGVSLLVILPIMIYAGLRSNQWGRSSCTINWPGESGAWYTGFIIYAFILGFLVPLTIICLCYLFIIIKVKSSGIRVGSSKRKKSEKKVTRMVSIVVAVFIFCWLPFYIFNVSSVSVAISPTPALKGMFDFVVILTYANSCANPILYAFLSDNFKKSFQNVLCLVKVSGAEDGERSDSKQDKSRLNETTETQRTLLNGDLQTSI
Chain of Somatostatin receptor type 5 (P35346 whole entry): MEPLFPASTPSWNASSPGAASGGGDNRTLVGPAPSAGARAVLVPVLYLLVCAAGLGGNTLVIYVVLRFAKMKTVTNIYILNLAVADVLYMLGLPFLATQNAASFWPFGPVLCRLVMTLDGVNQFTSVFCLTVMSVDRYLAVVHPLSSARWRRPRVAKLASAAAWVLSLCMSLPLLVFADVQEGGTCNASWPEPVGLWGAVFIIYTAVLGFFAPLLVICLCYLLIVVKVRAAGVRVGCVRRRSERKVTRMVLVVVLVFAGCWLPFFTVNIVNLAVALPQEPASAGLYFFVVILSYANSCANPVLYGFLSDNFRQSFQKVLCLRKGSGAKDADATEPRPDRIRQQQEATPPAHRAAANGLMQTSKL

Ki [1]: 7.94 nM and 4.47 nM
Ki [2]: 331 nM
Ki [3]: 2.63 nM
Ki [4]: 1740 nM
Ki [5]: 851 nM
Compound: CC(=O)N[C@@H](Cc1ccc([N+](=O)[O-])cc1)C(=O)N[C@@H]1CSSC[C@@H](C(=O)N[C@H](Cc2ccc(O)cc2)C(N)=O)NC(=O)[C@H]([C@@H](C)O)NC(=O)[C@H](CCCCN)NC(=O)[C@@H](Cc2c[nH]c3ccccc23)NC(=O)[C@H](Cc2ccc(O)cc2)NC1=O [CAS_183658-72-2]
